# Test results taken from patent US12410160B2 (Gilead Sciences, Inc., priority 2021, dated 2025).
# Read-outs that look alike come from different tables or passages of the source.
# Assays:
# HepG2 cells = assay: F1P Cell-Based Assay (EC50), 13C6-fructose-1-phosphate in HepG2 cells (cell culture medium or 50% human plasma)
# Procedure: F1P Cell-Based Assay (EC50)
# Compounds were serially diluted (1:3) in DMSO. The LabCyte ECHO Acoustic dispenser system was used to pre-spot the assay plates (Greiner, Catalog #781091) with 400 nL (200-fold final dilution in 80 μL assay volume) of compound. 25,000 cells/well HepG2 cells (ATCC Catalog #HB-8065) were plated in a 40 μL volume/well in DMEM medium with 4.5 g/L glucose, 1× Penicillin-Streptomycin-Glutamine, and 10% FBS, using a BioTEK dispenser in a biological hood and incubated overnight at 37° C., 5% CO2, 90% humidity. 40 μL/well serum free assay medium (for F1P assay in cell culture medium), or 40 μL/well 100% human plasma (for F1P assay in 50% human plasma) were then added to the plates on the following day, and incubated for 1 hour at 37° C., 5% CO2, 90% humidity. ^13C6-labelled fructose (Sigma, Catalog #587621) in sterile PBS was added to the plates at a final concentration of 5 mM. The plates were incubated for 2 hours at 37° C., 5% CO2, 90% humidity. The assay was quenched by washing the cells with sterile PBS and adding 60 μL/well of 80% (v/v) methanol, 2 mM ammonium acetate and 2.5 μM Crotonyl-CoA, using a BioTEK washer-dispenser system. The plates were then sealed and stored in the −80° C. freezer until ready for RapidFire readout. ^13C6-fructose-1-phosphate in individual wells was quantified using the Agilent RapidFire High-Throughput MS system in negative mode using a […]. Mobile Phase 1 consisted of 20 mM ammonium acetate with 0.05% acetic acid in 100% methanol. Mobile phase 2 consisted of 5 mM octylamine in water (pH adjusted to 5 using acetic acid). F1P signals in individual wells were normalized by crotonyl CoA internal control.
# human KHK-C = human KHK-C (Homo sapiens (Human), UniProt P50053); assay: KHK Biochemical Assay (IC50), ADP-Glo, KHK-C; conditions: average of at least two separate assays
# In short: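 His-tagged enzyme expressed in BL21 (DE3), Ni-NTA purified. Compounds, serially diluted 1:3 in DMSO, pre-incubated 30 min with enzyme in 50 mM Hepes pH 7.4, 140 mM KCl, 5 mM MgCl2, 0.01% Triton-X, then ATP and fructose added; 4 h at room temperature. ADP formation read by ADP-Glo luminescence.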
# [1] = Homo sapiens, HepG2, HepG2 cells, 50% human plasma, read-out: F1P 50% HP EC50
# [2] = Homo sapiens, HepG2, read-out: F1P 10% FBS EC50, HepG2 cells, cell culture medium (10% FBS)
# [3] = HepG2 cells, 50% human plasma, read-out: F1P 50% HP EC50
# [4] = read-out: F1P 10% FBS EC50, HepG2 cells, cell culture medium (10% FBS)
# Chain of human KHK-C (P50053 whole entry): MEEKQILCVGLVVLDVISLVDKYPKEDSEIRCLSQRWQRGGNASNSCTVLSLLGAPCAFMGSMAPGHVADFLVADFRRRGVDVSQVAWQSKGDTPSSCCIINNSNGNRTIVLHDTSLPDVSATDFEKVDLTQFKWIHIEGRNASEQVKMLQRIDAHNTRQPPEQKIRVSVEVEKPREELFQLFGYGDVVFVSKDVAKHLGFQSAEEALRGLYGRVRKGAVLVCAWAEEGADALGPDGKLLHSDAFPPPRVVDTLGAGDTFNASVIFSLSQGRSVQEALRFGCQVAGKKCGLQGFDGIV
Compound,EC50 (HepG2 cells; [1]),EC50 (HepG2 cells; [2]),IC50 (human KHK-C),EC50 (HepG2 cells; [3]),EC50 (HepG2 cells; [4])
"C[C@H]1[C@H](O)CN1c1nc(-c2ccc3c(c2)CCC32COC(=O)N2)c2c(n1)C(F)(F)CC2 (stereo partly drawn) [Example 474, 5-(7,7-difluoro-2-((2S,3R)-3-hydroxy-2-methylazetidin-1-yl)-6,7-dihydro-5H-cyclopenta[d]pyrimidin-4-yl)-2,3-dihydrospiro[indene-1,4′-oxazolidin]-2′-one]",45.1 nM,22.5 nM,1 nM,–,–
"COc1cc(-c2nc(N3C[C@@H](O)[C@@H]3C)nc3c2CCC3(F)F)cc2c1C(NS(C)(=O)=O)CO2 (stereo partly drawn) [Example 477, N-(6-(7,7-difluoro-2-((2S,3R)-3-hydroxy-2-methylazetidin-1-yl)-6,7-dihydro-5H-cyclopenta[d]pyrimidin-4-yl)-4-methoxy-2,3-dihydrobenzofuran-3-yl)methanesulfonamide]",25.9 nM,6 nM,0.4 nM,–,–
"[2H]C1([2H])[C@@H](O)[C@H](C)N1c1nc(-c2ccc3c(c2)OC[C@@H]3NS(C)(=O)=O)c2c(n1)C(F)(F)CC2 [Example 480, N—((R)-6-(7,7-difluoro-2-((2S,3R)-3-hydroxy-2-methylazetidin-1-yl-4,4-d2)-6,7-dihydro-5H-cyclopenta[d]pyrimidin-4-yl)-2,3-dihydrobenzofuran-3-yl)methanesulfonamide]",23.7 nM,9.4 nM,0.6 nM,–,–
"C[C@H]1[C@H](O)CN1c1nc(-c2ccc3c(c2)OCC32COC(=O)N2)c2c(n1)C(F)(F)CC2 (stereo partly drawn) [Example 481, 6-(7,7-difluoro-2-((2S,3R)-3-hydroxy-2-methylazetidin-1-yl)-6,7-dihydro-5H-cyclopenta[d]pyrimidin-4-yl)-2H-spiro[benzofuran-3,4′-oxazolidin]-2′-one]",43 nM,6.6 nM,0.3 nM,–,–
"C[C@H]1CCN1c1nc2c(c(-c3cnc(C4(N)COC4)cn3)n1)CCC2 [Example 507, (S)-3-(5-(2-(2-methylazetidin-1-yl)-6,7-dihydro-5H-cyclopenta[d]pyrimidin-4-yl)pyrazin-2-yl)oxetan-3-amine]",247 nM,138 nM,73.6 nM,–,–
"CN=S(C)(=O)c1cccc(-c2nc(N3C[C@@H](O)[C@@H]3C)nc3c2CCC3(F)F)c1 (stereo partly drawn) [Example 508, (3-(7,7-difluoro-2-((2S,3R)-3-hydroxy-2-methylazetidin-1-yl)-6,7-dihydro-5H-cyclopenta[d]pyrimidin-4-yl)phenyl)(methyl)(methylimino)-λ^6-sulfanone]",254 nM,126 nM,61.2 nM,–,–
"C[C@H]1[C@H](O)CN1c1nc(-c2cccc(S(C)(=O)=O)c2)c2c(n1)C(F)(F)CC2 [Example 509, (2S,3R)-1-(7,7-difluoro-4-(3-(methylsulfonyl)phenyl)-6,7-dihydro-5H-cyclopenta[d]pyrimidin-2-yl)-2-methylazetidin-3-ol]",58.1 nM,25.1 nM,19.9 nM,–,–
"CCS(=N)(=O)c1cccc(-c2nc(N3C[C@@H](O)[C@@H]3C)nc3c2CCC3(F)F)c1 (stereo partly drawn) [Example 511, (3-(7,7-difluoro-2-((2S,3R)-3-hydroxy-2-methylazetidin-1-yl)-6,7-dihydro-5H-cyclopenta[d]pyrimidin-4-yl)phenyl)(ethyl)(imino)-λ^6-sulfanone]",46.1 nM,34.6 nM,20.9 nM,–,–
"C[C@H]1[C@H](O)CN1c1nc(-c2ccc(C3(N)COC3)c(C(F)(F)F)c2)c2c(n1)C(F)(F)CC2 [Example 514, (2S,3R)-1-(4-(4-(3-aminooxetan-3-yl)-3-(trifluoromethyl)phenyl)-7,7-difluoro-6,7-dihydro-5H-cyclopenta[d]pyrimidin-2-yl)-2-methylazetidin-3-ol]",72.3 nM,41.6 nM,10.6 nM,–,–
"C[C@H]1[C@H](O)CN1c1nc(-c2ccc(C(F)(F)CN)cc2)c2c(n1)C(F)(F)CC2 [Example 515, (2S,3R)-1-(4-(4-(2-amino-1,1-difluoroethyl)phenyl)-7,7-difluoro-6,7-dihydro-5H-cyclopenta[d]pyrimidin-2-yl)-2-methylazetidin-3-ol]",126 nM,59.1 nM,29.7 nM,–,–
"C[C@@H]1N(c2nc(-c3ccc4c(c3)CCNC43COC3)c3c(n2)C(F)(F)CC3)CC1(F)F [Example 519, (S)-6-(2-(3,3-difluoro-2-methylazetidin-1-yl)-7,7-difluoro-6,7-dihydro-5H-cyclopenta[d]pyrimidin-4-yl)-3,4-dihydro-2H-spiro[isoquinoline-1,3′-oxetane]]",23 nM,10.1 nM,2.2 nM,–,–
"C[C@H]1[C@H](O)CN1c1nc(-c2ccc3c(c2)C2CC(C2)NC3=O)c2c(n1)C(F)(F)CC2 [Example 520, 7-(7,7-difluoro-2-((2S,3R)-3-hydroxy-2-methylazetidin-1-yl)-6,7-dihydro-5H-cyclopenta[d]pyrimidin-4-yl)-2,3,4,5-tetrahydro-1H-3,5-methanobenzo[c]azepin-1-one]",109 nM,49.8 nM,11.1 nM,–,–
"C[C@H]1[C@H](O)CN1c1nc(-c2ccc3c(c2)OCCNC32COC2)c2c(n1)C(F)(F)CC2 [Example 521, (2S,3R)-1-(4-(3,4-dihydro-2H-spiro[benzo[f][1,4]oxazepine-5,3′-oxetan]-8-yl)-7,7-difluoro-6,7-dihydro-5H-cyclopenta[d]pyrimidin-2-yl)-2-methylazetidin-3-ol]",> 100 nM,68.4 nM,9.8 nM,–,–
"C[C@H]1CCN1c1nc2c(c(-c3ccc(Cl)c(S(N)(=O)=O)c3)n1)CCC2 [Example 522, (S)-2-chloro-5-(2-(2-methylazetidin-1-yl)-6,7-dihydro-5H-cyclopenta[d]pyrimidin-4-yl)benzenesulfonamide]",454 nM,53.3 nM,44.5 nM,–,–
"C[C@H]1[C@H](F)CN1c1nc(-c2ccc3c(c2)OC[C@@H]3NS(C)(=O)=O)c2c(n1)C(F)(F)CC2 [Example 523, N—((R)-6-(7,7-difluoro-2-((2S,3R)-3-fluoro-2-methylazetidin-1-yl)-6,7-dihydro-5H-cyclopenta[d]pyrimidin-4-yl)-2,3-dihydrobenzofuran-3-yl)methanesulfonamide]",51.3 nM,5.1 nM,0.7 nM,–,–
"C[C@H]1[C@@H](F)CN1c1nc(-c2ccc3c(c2)OC[C@@H]3NS(C)(=O)=O)c2c(n1)C(F)(F)CC2 [Example 524, N—((R)-6-(7,7-difluoro-2-((2S,3S)-3-fluoro-2-methylazetidin-1-yl)-6,7-dihydro-5H-cyclopenta[d]pyrimidin-4-yl)-2,3-dihydrobenzofuran-3-yl)methanesulfonamide]",60.1 nM,8.2 nM,1 nM,–,–
"COc1cc(-c2nc(N3C[C@@H](O)[C@@H]3C)nc3c2CCC3(F)F)cc2c1[C@@H](NS(C)(=O)=O)CO2 [Example 529, N-(6-(7,7-difluoro-2-((2S,3R)-3-hydroxy-2-methylazetidin-1-yl)-6,7-dihydro-5H-cyclopenta[d]pyrimidin-4-yl)-4-methoxy-2,3-dihydrobenzofuran-3-yl)methanesulfonamide]",–,–,2.7 nM,65.3 nM,26.2 nM
COc1cc(-c2nc(N3C[C@@H](O)[C@@H]3C)nc3c2CCC3(F)F)cc2c1[C@@H](NS(C)(=O)=O)CO2 [Example 530],–,–,1.5 nM,142 nM,29.7 nM
